Assay results published in patent US20190031599A1, “INDANE DERIVATIVES AS MGLUR7 MODULATORS” (Takeda Pharmaceutical Company Limited, priority 2016, published 2019).
Counter-ions that a name gives are not always drawn.

Biological target: T1, human mGluR7 (Homo sapiens, UniProt Q14831)
T1 construct: expressed in transfected cells
Experiment: mGluR7 assay: CRE-directed luciferase reporter gene assay, reduction of forskolin stimulated cAMP production
Type: cell-based
Conditions: stable CHO cell line expressing the CRE-luc reporter and human mGluR7 genes; decrease of forskolin stimulated luminescence; 10-point concentration-response, duplicate wells
Protocol: The ability of the test compounds to activate mGluR7 was determined by their ability to reduce forskolin stimulated cAMP production. Compounds were assessed in a CRE-directed luciferase reporter gene assay, using a stable CHO cell line expressing the CRE-luc reporter and human mGluR7 genes. In this cell line, production of cAMP stimulated the transcription of the luciferase gene and luciferase activity was then measured in a luminescent enzyme assay (Steady Glo assay; Promega E2550). Activation of mGluR7 decreased the forskolin stimulated luminescence signal.
The day prior to the assay, compounds were serially diluted in DMSO (100× final assay concentration (FAC)), in 384-well plates which were then stored in the dark at room temperature (RT) until use. Cells were seeded at 12.5 k/well in white, clear bottom 384-well plates (Corning 3707) and left for one hour at RT followed by an overnight incubation (37° C.). The following day, the DMSO compound plate was diluted 1:20 (5× FAC) in Opti-MEM I (Life Technologies 11058021). The growth media was removed from the cell plate and replaced with 15 μl Opti-MEM I, followed by a 5 μl addition from the 5× compound plate and a fifteen minute incubation (37° C.). Forskolin (Sigma F3917) was then added to the wells (5 μl of 2.5 μM) and the plate was incubated for five hours (37° C.). During this incubation, the Steady Glo Substrate reagent was warmed to 37° C. Aliquots (11 ml; stored at −20° C.) of this reagent were prepared by dissolving the contents of 1 vial of lyophilised substrate in 100 ml Steady-Glo buffer. A 25 μl addition of the substrate was made to all wells and the plate was incubated for thirty minutes at RT, on a plate shaker (300 rpm; in the dark). Luminescence was then measured using the EnVision Multilabel Reader (Perkin Elmer).
Compound activity was examined using a 10-point, half log concentration-response range and each concentration was tested in duplicate wells. Luminescence values were normalised to ‘maximum’ (forskolin alone) and ‘minimum’ (forskolin in the presence of tool mGluR7 agonist) controls.

T1 sequence (Q14831 35-915): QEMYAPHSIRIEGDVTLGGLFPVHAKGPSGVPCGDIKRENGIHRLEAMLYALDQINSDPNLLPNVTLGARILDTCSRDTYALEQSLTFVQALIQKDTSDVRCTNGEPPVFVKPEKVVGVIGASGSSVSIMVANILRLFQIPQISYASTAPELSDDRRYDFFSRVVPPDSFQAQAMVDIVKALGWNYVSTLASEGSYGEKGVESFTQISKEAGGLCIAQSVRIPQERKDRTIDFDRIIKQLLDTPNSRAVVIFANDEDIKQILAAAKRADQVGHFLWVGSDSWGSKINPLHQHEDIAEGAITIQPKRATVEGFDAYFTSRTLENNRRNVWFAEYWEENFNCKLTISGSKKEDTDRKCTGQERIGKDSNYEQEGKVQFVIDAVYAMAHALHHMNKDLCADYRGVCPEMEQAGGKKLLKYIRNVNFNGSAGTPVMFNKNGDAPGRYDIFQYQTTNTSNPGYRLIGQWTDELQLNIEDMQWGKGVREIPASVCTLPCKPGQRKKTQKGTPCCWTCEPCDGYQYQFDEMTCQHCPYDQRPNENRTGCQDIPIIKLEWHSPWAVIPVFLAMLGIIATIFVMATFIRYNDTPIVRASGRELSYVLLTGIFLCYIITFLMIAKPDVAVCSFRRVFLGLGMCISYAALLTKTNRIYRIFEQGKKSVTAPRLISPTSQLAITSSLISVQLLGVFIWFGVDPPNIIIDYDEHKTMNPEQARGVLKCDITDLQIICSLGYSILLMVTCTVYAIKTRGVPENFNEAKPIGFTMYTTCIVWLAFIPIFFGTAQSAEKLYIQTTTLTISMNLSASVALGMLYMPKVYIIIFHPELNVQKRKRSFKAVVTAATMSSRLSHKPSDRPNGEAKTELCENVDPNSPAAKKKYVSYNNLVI

EC50 [nM] | SMILES
1270 | COC1c2ccccc2CC1NC(=O)C(c1ccc(F)cc1)N1CC(F)C1 (single isomer, unassigned) [Example 140, 2-(4-fluorophenyl)-2-(3-fluoroazetidin-1-yl)-N-(trans)-(1-methoxy-2,3-dihydro-1H-inden-2-yl)acetamide]
39 | COC1c2ccccc2CC1NC(=O)C(c1ccc(F)cc1)N1CC(F)C1 (single isomer, unassigned) [Example 141, 2-(4-fluorophenyl)-2-(3-fluoroazetidin-1-yl)-N-(trans)-(1-methoxy-2,3-dihydro-1H-inden-2-yl)acetamide]
62 | COC1c2ccccc2CC1NC(=O)C(c1ccc(F)cc1)N1CC(F)C1 (single isomer, unassigned) [Example 142, 2-(4-fluorophenyl)-2-(3-fluoroazetidin-1-yl)-N-(trans)-(1-methoxy-2,3-dihydro-1H-inden-2-yl)acetamide]
1250 | COC1c2ccccc2CC1NC(=O)C(c1ccc(F)cc1)N1CC(F)C1 (single isomer, unassigned) [Example 143, 2-(4-fluorophenyl)-2-(3-fluoroazetidin-1-yl)-N-(trans)-(1-methoxy-2,3-dihydro-1H-inden-2-yl)acetamide]
191 | COC1c2ccccc2CC1NC(=O)[C@H](NC(=O)C1CC1)c1ccc(F)cc1 (single isomer, unassigned) [Example 144]
0.6 | CS(=O)(=O)C1c2ccccc2CC1NC(=O)C(OCC1CC1)c1ccccc1 (single isomer, unassigned) [Example 145, 2-(cyclopropylmethoxy)-N-(trans)-(1-methanesulfonyl-2,3-dihydro-1H-inden-2-yl)-2-phenylacetamide]
4 | CS(=O)(=O)C1c2ccccc2CC1NC(=O)C(OCC1CC1)c1ccccc1 (single isomer, unassigned) [Example 146, 2-(cyclopropylmethoxy)-N-(trans)-(1-methanesulfonyl-2,3-dihydro-1H-inden-2-yl)-2-phenylacetamide]
39 | CS(=O)(=O)C1c2ccccc2CC1NC(=O)C(OCC1CC1)c1ccccc1 (single isomer, unassigned) [Example 147, 2-(cyclopropylmethoxy)-N-(trans)-(1-methanesulfonyl-2,3-dihydro-1H-inden-2-yl)-2-phenylacetamide]
16 | CS(=O)(=O)C1c2ccccc2CC1NC(=O)C(OCC1CC1)c1ccccc1 (single isomer, unassigned) [Example 148, 2-(cyclopropylmethoxy)-N-(trans)-(1-methanesulfonyl-2,3-dihydro-1H-inden-2-yl)-2-phenylacetamide]
56 | CO[C@H](C(=O)NC1Cc2ccccc2C1S(C)(=O)=O)c1ccccc1 (single isomer, unassigned) [Example 158]
25 | CO[C@H](C(=O)NC1Cc2ccccc2C1S(C)(=O)=O)c1ccccc1 (single isomer, unassigned) [Example 159]
2 | CS(=O)(=O)[C@@H]1c2ccccc2C[C@H]1NC(=O)C(OCC1CC1)c1ccc(F)cc1 (single isomer, unassigned) [Example 161, 2-(cyclopropylmethoxy)-2-(4-fluorophenyl)-N-(trans)-(1-methanesulfonyl-2,3-dihydro-1H-inden-2-yl)acetamide]
2 | CS(=O)(=O)[C@@H]1c2ccccc2C[C@H]1NC(=O)C(OCC1CC1)c1ccc(F)cc1 (single isomer, unassigned) [Example 162, 2-(cyclopropylmethoxy)-2-(4-fluorophenyl)-N-(trans)-(1-methanesulfonyl-2,3-dihydro-1H-inden-2-yl)acetamide]
559 | C[C@@H](C(=O)NC1Cc2ccccc2C1O)c1ccccc1 (stereo in doubt) [Example 1, (2R)—N-((trans)-1-hydroxy-2,3-dihydro-1H-inden-2-yl)-2-phenylpropanamide]
1030 | COC1c2ccccc2CC1NC(=O)[C@@H](C)c1ccccc1 (stereo in doubt) [Example 10, (2S)—N-((cis)-1-methoxy-2,3-dihydro-1H-inden-2-yl)-2-phenylpropanamide]
19 | CCOC1c2ccccc2CC1NC(=O)[C@@H](C)c1ccc(F)cc1 (stereo in doubt) [Example 31, (2S)—N-((trans)-1-ethoxy-2,3-dihydro-1H-inden-2-yl)-2-(4-fluorophenyl)propanamide]

EC50 [nM] | SMILES
633 | COC1c2ccccc2CC1NC(=O)[C@@H](C)c1ccc(F)cc1 (stereo in doubt) [Example 39, (2S)-2-(4-fluorophenyl)-N-(cis)-(1-methoxy-2,3-dihydro-1H-inden-2-yl)propanamide]
56 | C[C@H](C(=O)NC1Cc2ccccc2C1O)c1ccc(F)cc1 (stereo in doubt) [Example 61, (2S)-2-(4-fluorophenyl)-N-(trans)-(1-hydroxy-2,3-dihydro-1H-inden-2-yl)propanamide]
4 | COC1c2ccccc2CC1NC(=O)[C@@H](NC(=O)c1cnn(C)c1)c1ccc(F)cc1 (stereo in doubt) [Example 65, (2S)-2-(4-fluorophenyl)-N-(trans)-(1-methoxy-2,3-dihydro-1H-inden-2-yl)-2-[(1-methyl-1H-pyrazol-4-yl)formamido]acetamide]
4 | COC1c2ccccc2CC1NC(=O)[C@@H](NC(=O)C1CC1)c1ccc(F)cc1 (stereo in doubt) [Example 66, (2S)-2-(cyclopropylformamido)-2-(4-fluorophenyl)-N-(trans)-(1-methoxy-2,3-dihydro-1H-inden-2-yl)acetamide]
2 | CC1c2ccccc2CC1NC(=O)[C@@H](NC(=O)OC(C)(C)C)c1ccc(F)cc1 (stereo in doubt) [Example 71, tert-butyl N—[(S)-(4-fluorophenyl)[(trans)-(1-methyl-2,3-dihydro-1H-inden-2-yl)carbamoyl]methyl]carbamate]
11 | COC1c2ccccc2CC1NC(=O)[C@@H](NS(C)(=O)=O)c1ccc(F)cc1 (stereo in doubt) [Example 72, (2S)-2-(4-fluorophenyl)-2-methanesulphonamido-N-(trans)-(1-methoxy-2,3-dihydro-1H-inden-2-yl)acetamide]
26 | CC1c2ccccc2CC1NC(=O)[C@@H](NS(C)(=O)=O)c1ccc(F)cc1 (stereo in doubt) [Example 85, (2S)-2-(4-fluorophenyl)-2-methanesulfonamido-N-((trans)-1-methyl-2,3-dihydro-1H-inden-2-yl)acetamide]
225 | CO[C@H](C(=O)NC1Cc2ccccc2C1S(C)(=O)=O)c1ccccc1 (stereo in doubt) [Example 149, (2S)—N-(trans)-(1-methanesulfonyl-2,3-dihydro-1H-inden-2-yl)-2-methoxy-2-phenylacetamide]
156 | CCS(=O)(=O)C1c2ccccc2CC1NC(=O)[C@@H](OC)c1ccccc1 (stereo in doubt) [Example 150, (2S)—N-(trans)-(1-ethanesulfonyl-2,3-dihydro-1H-inden-2-yl)-2-methoxy-2-phenylacetamide]
119 | C[C@H](C(=O)N[C@H]1Cc2ccccc2[C@@H]1N)c1ccccc1 [Example 11, (2S)—N-[(1S,2S)-1-amino-2,3-dihydro-1H-inden-2-yl]-2-phenylpropanamide hydrochloride]
290 | C[C@H](C(=O)N[C@@H]1Cc2ccccc2[C@H]1N)c1ccccc1 [Example 12, (2S)—N-[(1R,2R)-1-amino-2,3-dihydro-1H-inden-2-yl]-2-phenylpropanamide]
1200 | CC(=O)N[C@H]1c2ccccc2C[C@@H]1NC(=O)[C@@H](C)c1ccccc1 [Example 13, (2S)—N-[(1S,2S)-1-acetamido-2,3-dihydro-1H-inden-2-yl]-2-phenylpropanamide]
139 | CCC(C(=O)N[C@H]1Cc2ccccc2[C@@H]1N)c1ccc(F)cc1F (stereo partly drawn) [Example 14, N-[(1S,2S)-1-amino-2,3-dihydro-1H-inden-2-yl]-2-(2,4-difluorophenyl)butanamide hydrochloride]
195 | CCC(C(=O)N[C@@H]1Cc2ccccc2[C@H]1N)c1ccc(F)cc1F (stereo partly drawn) [Example 17, N-[(1R,2R)-1-amino-2,3-dihydro-1H-inden-2-yl]-2-(2,4-difluorophenyl)butanamide hydrochloride]
150 | C[C@H](C(=O)N[C@@H]1Cc2ccccc2[C@H]1NC(=O)OC(C)(C)C)c1ccccc1 [Example 18, tert-butyl N-[(1R,2R)-2-[(2S)-2-phenylpropanamido]-2,3-dihydro-1H-inden-1-yl]carbamate]
973 | CO[C@H](C(=O)N[C@H]1Cc2ccccc2[C@@H]1N)c1ccccc1 [Example 19, (2S)—N-[(1S,2S)-1-amino-2,3-dihydro-1H-inden-2-yl]-2-methoxy-2-phenylacetamide hydrochloride]
